The target in the assay is T1, Tyrosine-protein phosphatase non-receptor type 1 (Homo sapiens, UniProt P18031).
T1 sequence (P18031 whole entry): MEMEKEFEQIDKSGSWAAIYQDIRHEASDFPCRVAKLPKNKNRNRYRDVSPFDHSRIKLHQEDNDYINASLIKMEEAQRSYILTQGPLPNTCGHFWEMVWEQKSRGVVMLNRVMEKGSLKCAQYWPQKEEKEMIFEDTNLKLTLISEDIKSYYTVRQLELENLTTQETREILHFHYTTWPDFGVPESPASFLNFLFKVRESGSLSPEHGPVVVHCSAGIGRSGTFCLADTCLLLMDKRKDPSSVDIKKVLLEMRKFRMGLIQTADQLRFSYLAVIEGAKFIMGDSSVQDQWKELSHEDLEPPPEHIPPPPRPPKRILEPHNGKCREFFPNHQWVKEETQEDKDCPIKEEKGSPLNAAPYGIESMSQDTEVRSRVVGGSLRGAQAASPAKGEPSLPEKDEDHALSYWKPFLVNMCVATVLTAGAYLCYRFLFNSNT
Put plainly: Inhibition of PTP1B.

From ChEMBL document CHEMBL1141330, “Vanillic acid derivatives from the green algae Cladophora socialis as potent protein tyrosine phosphatase 1B inhibitors” (J Nat Prod, 2007) come the findings set out here.

pIC50: −log10 of the molar value.

In turn, `O=C(O)c1cc2oc3c(Oc4ccc(-c5ccc(OS(=O)(=O)O)c(O)c5)cc4O)cc(O)cc3c2cc1O` had a pIC50 of 5.77.
As to `O=C(O)c1cc2oc3c(Oc4ccc(-c5ccc(O)c(O)c5)cc4O)cc(O)cc3c2cc1O`, the negative-log IC50 (pIC50) was 5.43.

In general, pIC50 refers to the negative decadic logarithm of the IC50, by convention in mol/L. Read a high pIC50 as a low IC50.
